{
  "source": "paper PMC12300041",
  "about": "“Tricyclic Isatin Derivatives as Anti-Inflammatory Compounds with High Kinase Binding Affinity” (Molecules, 2025)",
  "assay_in_all_cases": "KINOMEscan",
  "assay_type_in_all_cases": "binding",
  "key": {"ABL1 (Q252H)-P": {"molecular_target": "T1, ABL1 (Q252H)-P (Homo sapiens, UniProt P00519, Q252H)", "T1 construct": "purchased Eurofins DiscoverX KINOMEscan", "summary_of_the_method": "(§1)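 Competition binding run for 1 h at room temperature; kinase left unbound by compound was captured on an immobilized affinity ligand and quantified by qPCR. Kd was taken from a 12-point half-log dilution series with a 33 μM top concentration.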"}, "ABL1-P": {"molecular_target": "T2, ABL1-P (Homo sapiens, UniProt P00519)", "T2 construct": "purchased Eurofins DiscoverX KINOMEscan", "summary_of_the_method": "as §1"}, "ABL2": {"molecular_target": "T3, ABL2 (Homo sapiens, UniProt P42684)", "T3 construct": "purchased Eurofins DiscoverX KINOMEscan", "summary_of_the_method": "as §1"}, "ACVR1B": {"molecular_target": "T4, ACVR1B (Homo sapiens, UniProt P36896)", "T4 construct": "purchased Eurofins DiscoverX KINOMEscan", "summary_of_the_method": "(§2)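 A 12-point half-log dilution series topping at 33 μM defined each Kd. The kinase fraction escaping compound binding over 1 h at room temperature was trapped by an immobilized affinity ligand and measured by quantitative PCR.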"}, "ACVR2A": {"molecular_target": "T5, ACVR2A (Homo sapiens, UniProt P27037)", "T5 construct": "purchased Eurofins DiscoverX KINOMEscan", "summary_of_the_method": "as §2"}, "ALK (C1156Y)": {"molecular_target": "T6, ALK (C1156Y) (Homo sapiens, UniProt Q9UM73, C1156Y)", "T6 construct": "purchased Eurofins DiscoverX KINOMEscan", "summary_of_the_method": "as §1"}, "AURKC": {"molecular_target": "T7, AURKC (Homo sapiens, UniProt Q9UQB9)", "T7 construct": "purchased Eurofins DiscoverX KINOMEscan", "summary_of_the_method": "as §2"}, "BMPR1B": {"molecular_target": "T8, BMPR1B (Homo sapiens, UniProt O00238)", "T8 construct": "purchased Eurofins DiscoverX KINOMEscan", "summary_of_the_method": "as §1"}, "BRSK1": {"molecular_target": "T9, BRSK1 (Homo sapiens, UniProt Q8TDC3)", "T9 construct": "purchased Eurofins DiscoverX KINOMEscan", "summary_of_the_method": "as §1"}, "CAMK1B": {"molecular_target": "T10, CAMK1B (Homo sapiens, UniProt Q6P2M8)", "T10 construct": "purchased Eurofins DiscoverX KINOMEscan", "summary_of_the_method": "as §2"}, "CAMK2D": {"molecular_target": "T11, CAMK2D (Homo sapiens, UniProt Q13557)", "T11 construct": "purchased Eurofins DiscoverX KINOMEscan", "summary_of_the_method": "as §1"}, "CDK2": {"molecular_target": "T12, CDK2 (Homo sapiens, UniProt P24941)", "T12 construct": "purchased Eurofins DiscoverX KINOMEscan", "summary_of_the_method": "as §1"}, "EGFR (G719S)": {"molecular_target": "T13, EGFR (G719S) (Homo sapiens, UniProt P00533, G719S)", "T13 construct": "purchased Eurofins DiscoverX KINOMEscan", "summary_of_the_method": "as §1"}, "EGFR (L858R, T790M)": {"molecular_target": "T14, EGFR (L858R, T790M) (Homo sapiens, UniProt P00533, L858R/T790M)", "T14 construct": "purchased Eurofins DiscoverX KINOMEscan", "summary_of_the_method": "as §2"}, "EPHB4": {"molecular_target": "T15, EPHB4 (Homo sapiens, UniProt P54760)", "T15 construct": "purchased Eurofins DiscoverX KINOMEscan", "T15 sequence (P54760 16-987)": "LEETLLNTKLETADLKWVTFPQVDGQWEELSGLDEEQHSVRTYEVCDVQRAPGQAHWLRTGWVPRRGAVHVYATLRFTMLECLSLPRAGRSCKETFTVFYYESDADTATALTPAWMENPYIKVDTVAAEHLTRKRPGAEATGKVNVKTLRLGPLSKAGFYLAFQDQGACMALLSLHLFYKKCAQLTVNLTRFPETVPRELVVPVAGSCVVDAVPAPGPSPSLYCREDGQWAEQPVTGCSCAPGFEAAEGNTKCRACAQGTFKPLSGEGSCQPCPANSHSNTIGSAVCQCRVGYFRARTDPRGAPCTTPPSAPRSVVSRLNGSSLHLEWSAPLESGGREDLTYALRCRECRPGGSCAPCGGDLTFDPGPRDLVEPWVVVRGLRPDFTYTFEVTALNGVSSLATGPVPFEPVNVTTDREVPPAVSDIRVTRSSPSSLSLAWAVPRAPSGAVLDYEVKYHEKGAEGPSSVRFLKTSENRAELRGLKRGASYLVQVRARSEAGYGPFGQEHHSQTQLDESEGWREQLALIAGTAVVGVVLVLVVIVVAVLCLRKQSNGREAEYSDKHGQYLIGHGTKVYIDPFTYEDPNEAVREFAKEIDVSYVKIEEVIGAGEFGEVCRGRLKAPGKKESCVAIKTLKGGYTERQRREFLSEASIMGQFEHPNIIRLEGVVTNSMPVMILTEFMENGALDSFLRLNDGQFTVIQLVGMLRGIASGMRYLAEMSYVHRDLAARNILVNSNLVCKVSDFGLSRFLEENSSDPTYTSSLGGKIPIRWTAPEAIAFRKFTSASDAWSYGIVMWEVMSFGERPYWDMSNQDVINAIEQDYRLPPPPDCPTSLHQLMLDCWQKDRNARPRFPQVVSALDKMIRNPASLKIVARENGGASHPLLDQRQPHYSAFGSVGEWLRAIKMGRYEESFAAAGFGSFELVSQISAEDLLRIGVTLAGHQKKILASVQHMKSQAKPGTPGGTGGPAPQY", "summary_of_the_method": "as §2"}, "ERK3": {"molecular_target": "T16, ERK3 (Homo sapiens, UniProt Q16659)", "T16 construct": "purchased Eurofins DiscoverX KINOMEscan", "summary_of_the_method": "as §1"}, "FLT3 (N841I)": {"molecular_target": "T17, FLT3 (N841I) (Homo sapiens, UniProt P36888, N841I)", "T17 construct": "purchased Eurofins DiscoverX KINOMEscan", "summary_of_the_method": "as §1"}, "FLT3-autoinhibited": {"molecular_target": "T18, FLT3-autoinhibited (Homo sapiens, UniProt P36888)", "T18 construct": "purchased Eurofins DiscoverX KINOMEscan", "summary_of_the_method": "as §1"}, "MAP3K4": {"molecular_target": "T19, MAP3K4 (Homo sapiens, UniProt Q9Y6R4)", "T19 construct": "purchased Eurofins DiscoverX KINOMEscan", "summary_of_the_method": "as §2"}, "MAPKAPK2": {"molecular_target": "T20, MAPKAPK2 (Homo sapiens, UniProt P49137)", "T20 construct": "purchased Eurofins DiscoverX KINOMEscan", "summary_of_the_method": "as §1"}, "MAPKAPK5": {"molecular_target": "T21, MAPKAPK5 (Homo sapiens, UniProt Q8IW41)", "T21 construct": "purchased Eurofins DiscoverX KINOMEscan", "summary_of_the_method": "as §2"}, "MEK1": {"molecular_target": "T22, MEK1 (Homo sapiens, UniProt Q02750)", "T22 construct": "purchased Eurofins DiscoverX KINOMEscan", "summary_of_the_method": "as §1"}, "MEK3": {"molecular_target": "T23, MEK3 (Homo sapiens, UniProt P46734)", "T23 construct": "purchased Eurofins DiscoverX KINOMEscan", "summary_of_the_method": "as §1"}, "MLK3": {"molecular_target": "T24, MLK3 (Homo sapiens, UniProt Q16584)", "T24 construct": "purchased Eurofins DiscoverX KINOMEscan", "summary_of_the_method": "as §2"}, "MRCKB": {"molecular_target": "T25, MRCKB (Homo sapiens, UniProt Q9Y5S2)", "T25 construct": "purchased Eurofins DiscoverX KINOMEscan", "summary_of_the_method": "as §1"}, "PAK1": {"molecular_target": "T26, PAK1 (Homo sapiens, UniProt Q13153)", "T26 construct": "purchased Eurofins DiscoverX KINOMEscan", "summary_of_the_method": "as §1"}, "PAK2": {"molecular_target": "T27, PAK2 (Homo sapiens, UniProt Q13177)", "T27 construct": "purchased Eurofins DiscoverX KINOMEscan", "summary_of_the_method": "as §2"}, "PFTK1": {"molecular_target": "T28, PFTK1 (Homo sapiens, UniProt O94921)", "T28 construct": "purchased Eurofins DiscoverX KINOMEscan", "summary_of_the_method": "as §2"}, "PIK3CA (C420R)": {"molecular_target": "T29, PIK3CA (C420R) (Homo sapiens, UniProt P42336, C420R)", "T29 construct": "purchased Eurofins DiscoverX KINOMEscan", "T29 sequence (P42336 whole entry C420R)": "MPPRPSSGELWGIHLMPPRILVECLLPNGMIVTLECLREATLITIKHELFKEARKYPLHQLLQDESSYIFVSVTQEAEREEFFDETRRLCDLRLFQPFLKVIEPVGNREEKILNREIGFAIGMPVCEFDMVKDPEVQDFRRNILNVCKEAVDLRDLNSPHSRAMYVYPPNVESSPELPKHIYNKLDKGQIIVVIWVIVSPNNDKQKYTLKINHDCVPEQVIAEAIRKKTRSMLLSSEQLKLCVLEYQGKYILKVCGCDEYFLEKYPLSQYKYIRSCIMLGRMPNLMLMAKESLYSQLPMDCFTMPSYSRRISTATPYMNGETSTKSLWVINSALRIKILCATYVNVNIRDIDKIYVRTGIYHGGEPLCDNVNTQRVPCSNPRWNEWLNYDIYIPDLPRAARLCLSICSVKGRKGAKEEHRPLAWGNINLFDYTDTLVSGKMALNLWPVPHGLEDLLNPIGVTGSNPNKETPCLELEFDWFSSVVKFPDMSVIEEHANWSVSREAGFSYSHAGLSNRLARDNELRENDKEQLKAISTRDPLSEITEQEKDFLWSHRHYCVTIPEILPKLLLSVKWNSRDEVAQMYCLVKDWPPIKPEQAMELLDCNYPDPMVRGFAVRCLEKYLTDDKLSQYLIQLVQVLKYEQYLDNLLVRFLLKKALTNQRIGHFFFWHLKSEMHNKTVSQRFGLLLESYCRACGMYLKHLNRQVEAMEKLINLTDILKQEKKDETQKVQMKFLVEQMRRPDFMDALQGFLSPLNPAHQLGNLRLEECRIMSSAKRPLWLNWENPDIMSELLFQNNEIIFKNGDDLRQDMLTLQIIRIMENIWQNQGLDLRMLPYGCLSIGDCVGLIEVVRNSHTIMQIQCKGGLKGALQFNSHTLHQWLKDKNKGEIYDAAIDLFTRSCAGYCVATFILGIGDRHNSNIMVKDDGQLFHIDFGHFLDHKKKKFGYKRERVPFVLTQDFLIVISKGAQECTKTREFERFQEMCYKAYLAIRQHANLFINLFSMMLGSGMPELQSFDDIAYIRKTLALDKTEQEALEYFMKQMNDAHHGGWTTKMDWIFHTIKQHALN", "summary_of_the_method": "as §1"}, "PRKCE": {"molecular_target": "T30, PRKCE (Homo sapiens, UniProt Q02156)", "T30 construct": "purchased Eurofins DiscoverX KINOMEscan", "summary_of_the_method": "as §2"}, "ROCK2": {"molecular_target": "T31, ROCK2 (Homo sapiens, UniProt O75116)", "T31 construct": "purchased Eurofins DiscoverX KINOMEscan", "summary_of_the_method": "as §2"}, "S6K1": {"molecular_target": "T32, S6K1 (Homo sapiens, UniProt P23443)", "T32 construct": "purchased Eurofins DiscoverX KINOMEscan", "summary_of_the_method": "as §1"}, "SGK3": {"molecular_target": "T33, SGK3 (Homo sapiens, UniProt Q96BR1)", "T33 construct": "purchased Eurofins DiscoverX KINOMEscan", "T33 sequence (Q96BR1 whole entry)": "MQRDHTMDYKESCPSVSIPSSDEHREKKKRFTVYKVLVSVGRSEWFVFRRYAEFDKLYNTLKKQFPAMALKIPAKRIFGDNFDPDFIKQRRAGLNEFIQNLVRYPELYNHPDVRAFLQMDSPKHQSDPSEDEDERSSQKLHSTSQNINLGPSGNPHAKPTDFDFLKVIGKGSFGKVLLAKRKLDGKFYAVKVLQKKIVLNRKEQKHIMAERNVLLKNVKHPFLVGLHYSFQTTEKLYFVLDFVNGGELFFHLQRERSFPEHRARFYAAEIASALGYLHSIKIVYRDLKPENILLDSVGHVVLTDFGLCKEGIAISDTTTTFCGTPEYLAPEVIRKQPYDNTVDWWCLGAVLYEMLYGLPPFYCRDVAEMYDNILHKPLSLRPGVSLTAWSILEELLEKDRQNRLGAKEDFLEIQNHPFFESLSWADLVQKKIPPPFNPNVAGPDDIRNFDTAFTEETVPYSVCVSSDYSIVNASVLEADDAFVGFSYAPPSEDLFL", "summary_of_the_method": "as §2"}, "SNARK": {"molecular_target": "T34, SNARK (Homo sapiens, UniProt Q9H093)", "T34 construct": "purchased Eurofins DiscoverX KINOMEscan", "T34 sequence (Q9H093 whole entry)": "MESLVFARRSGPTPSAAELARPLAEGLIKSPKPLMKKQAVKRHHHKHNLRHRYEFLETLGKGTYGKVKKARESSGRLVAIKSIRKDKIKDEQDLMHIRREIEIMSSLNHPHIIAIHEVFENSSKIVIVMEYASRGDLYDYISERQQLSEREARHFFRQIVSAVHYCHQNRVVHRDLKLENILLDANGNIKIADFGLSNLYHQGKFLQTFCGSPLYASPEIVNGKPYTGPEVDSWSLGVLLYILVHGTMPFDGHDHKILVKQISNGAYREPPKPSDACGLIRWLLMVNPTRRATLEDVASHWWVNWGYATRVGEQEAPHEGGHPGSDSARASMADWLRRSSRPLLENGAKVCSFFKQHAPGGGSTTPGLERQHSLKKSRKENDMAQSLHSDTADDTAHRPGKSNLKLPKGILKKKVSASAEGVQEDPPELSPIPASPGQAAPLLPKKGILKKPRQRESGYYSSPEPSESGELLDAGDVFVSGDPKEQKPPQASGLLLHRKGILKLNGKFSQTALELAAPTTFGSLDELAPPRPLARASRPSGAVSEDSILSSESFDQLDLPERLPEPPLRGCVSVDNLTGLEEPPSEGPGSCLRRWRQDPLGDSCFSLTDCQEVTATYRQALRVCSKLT", "summary_of_the_method": "as §1"}, "SYK": {"molecular_target": "T35, SYK (Homo sapiens, UniProt P43405)", "T35 construct": "purchased Eurofins DiscoverX KINOMEscan", "summary_of_the_method": "as §2"}, "SgK110": {"molecular_target": "T36, SgK110 (Homo sapiens, UniProt P0C264)", "T36 construct": "purchased Eurofins DiscoverX KINOMEscan", "T36 sequence (P0C264 whole entry)": "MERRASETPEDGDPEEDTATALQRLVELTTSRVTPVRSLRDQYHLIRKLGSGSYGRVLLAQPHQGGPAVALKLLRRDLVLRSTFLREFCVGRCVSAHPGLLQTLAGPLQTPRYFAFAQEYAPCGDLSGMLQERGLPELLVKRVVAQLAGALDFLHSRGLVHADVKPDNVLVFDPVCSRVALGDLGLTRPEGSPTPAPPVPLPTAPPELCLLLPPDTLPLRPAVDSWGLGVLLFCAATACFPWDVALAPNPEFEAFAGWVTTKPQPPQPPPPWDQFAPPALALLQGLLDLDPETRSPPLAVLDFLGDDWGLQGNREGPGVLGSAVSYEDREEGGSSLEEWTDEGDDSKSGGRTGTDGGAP", "summary_of_the_method": "as §2"}, "TRKC": {"molecular_target": "T37, TRKC (Homo sapiens, UniProt Q16288)", "T37 construct": "purchased Eurofins DiscoverX KINOMEscan", "T37 sequence (Q16288 32-839)": "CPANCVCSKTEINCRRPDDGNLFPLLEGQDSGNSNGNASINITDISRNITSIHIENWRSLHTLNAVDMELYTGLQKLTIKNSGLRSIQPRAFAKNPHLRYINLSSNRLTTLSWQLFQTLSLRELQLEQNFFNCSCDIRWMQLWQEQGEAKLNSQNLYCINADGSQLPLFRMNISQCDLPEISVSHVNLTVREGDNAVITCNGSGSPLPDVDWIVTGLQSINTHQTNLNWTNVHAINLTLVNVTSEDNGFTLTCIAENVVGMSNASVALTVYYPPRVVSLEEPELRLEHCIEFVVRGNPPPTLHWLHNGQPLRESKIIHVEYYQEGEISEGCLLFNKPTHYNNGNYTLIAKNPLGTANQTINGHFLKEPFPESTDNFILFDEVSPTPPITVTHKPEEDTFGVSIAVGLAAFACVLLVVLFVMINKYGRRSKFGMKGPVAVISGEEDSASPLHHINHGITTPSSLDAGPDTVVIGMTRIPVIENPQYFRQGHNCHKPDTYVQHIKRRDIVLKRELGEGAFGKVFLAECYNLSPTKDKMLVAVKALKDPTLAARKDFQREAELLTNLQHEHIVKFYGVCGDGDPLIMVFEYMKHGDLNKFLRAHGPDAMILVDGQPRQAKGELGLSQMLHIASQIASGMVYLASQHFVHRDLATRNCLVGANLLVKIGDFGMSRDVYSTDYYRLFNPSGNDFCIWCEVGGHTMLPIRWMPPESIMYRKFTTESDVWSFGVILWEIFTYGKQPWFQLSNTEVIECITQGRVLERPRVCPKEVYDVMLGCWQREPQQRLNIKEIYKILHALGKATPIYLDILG", "summary_of_the_method": "as §2"}, "TRPM6": {"molecular_target": "T38, TRPM6 (Homo sapiens, UniProt Q9BX84)", "T38 construct": "purchased Eurofins DiscoverX KINOMEscan", "summary_of_the_method": "as §1"}, "VRK2": {"molecular_target": "T39, VRK2 (Homo sapiens, UniProt Q86Y07)", "T39 construct": "purchased Eurofins DiscoverX KINOMEscan", "summary_of_the_method": "as §1"}, "WEE1": {"molecular_target": "T40, WEE1 (Homo sapiens, UniProt P30291)", "T40 construct": "purchased Eurofins DiscoverX KINOMEscan", "T40 sequence (P30291 whole entry)": "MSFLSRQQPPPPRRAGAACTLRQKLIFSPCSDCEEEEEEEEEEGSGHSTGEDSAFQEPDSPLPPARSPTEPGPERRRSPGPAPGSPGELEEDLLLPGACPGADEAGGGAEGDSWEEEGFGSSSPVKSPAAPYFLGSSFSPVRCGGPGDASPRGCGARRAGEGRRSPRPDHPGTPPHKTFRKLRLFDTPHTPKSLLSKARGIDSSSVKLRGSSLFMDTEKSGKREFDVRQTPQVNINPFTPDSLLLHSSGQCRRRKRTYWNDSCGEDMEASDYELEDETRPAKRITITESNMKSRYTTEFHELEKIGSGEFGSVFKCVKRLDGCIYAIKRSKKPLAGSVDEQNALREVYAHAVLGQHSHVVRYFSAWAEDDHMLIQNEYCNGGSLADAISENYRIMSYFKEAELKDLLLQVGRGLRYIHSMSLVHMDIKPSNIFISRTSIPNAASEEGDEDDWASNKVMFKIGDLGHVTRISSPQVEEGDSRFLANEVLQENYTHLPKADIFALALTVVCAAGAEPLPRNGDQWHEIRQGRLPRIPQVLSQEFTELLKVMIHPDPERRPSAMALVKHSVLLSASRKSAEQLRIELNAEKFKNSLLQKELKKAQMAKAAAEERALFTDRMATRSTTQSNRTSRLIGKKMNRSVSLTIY", "summary_of_the_method": "as §1"}},
  "data": [
    {"smiles": "O=C1Nc2c(cc([N+](=O)[O-])c3c2CCCC3)C1=NO", "note": "[Compound 5d, 3-(Hydroxyimino)-5-nitro-1,3,6,7,8,9-hexahydro-2H-benzo[g]indol-2-one]", "values": [
      {"measurement": "inhibition at 10 µM", "setting": "ABL1 (Q252H)-P", "value": 47, "unit": "%"},
      {"measurement": "inhibition at 10 µM", "setting": "ABL1-P", "value": 46, "unit": "%"},
      {"measurement": "inhibition at 10 µM", "setting": "ABL2", "value": 2, "unit": "%"},
      {"measurement": "inhibition at 10 µM", "setting": "ACVR1B", "value": 10, "unit": "%"},
      {"measurement": "inhibition at 10 µM", "setting": "ACVR2A", "value": 10, "unit": "%"},
      {"measurement": "inhibition at 10 µM", "setting": "ALK (C1156Y)", "value": 43, "unit": "%"},
      {"measurement": "inhibition at 10 µM", "setting": "AURKC", "value": 39, "unit": "%"},
      {"measurement": "inhibition at 10 µM", "setting": "BMPR1B", "value": 19, "unit": "%"},
      {"measurement": "inhibition at 10 µM", "setting": "BRSK1", "value": 36, "unit": "%"},
      {"measurement": "inhibition at 10 µM", "setting": "CAMK1B", "value": 12, "unit": "%"},
      {"measurement": "inhibition at 10 µM", "setting": "CAMK2D", "value": 51, "unit": "%"},
      {"measurement": "inhibition at 10 µM", "setting": "CDK2", "value": 9, "unit": "%"},
      {"measurement": "inhibition at 10 µM", "setting": "EGFR (G719S)", "value": 13, "unit": "%"},
      {"measurement": "inhibition at 10 µM", "setting": "EGFR (L858R, T790M)", "value": 2, "unit": "%"},
      {"measurement": "inhibition at 10 µM", "setting": "EPHB4", "value": 0, "unit": "%"},
      {"measurement": "inhibition at 10 µM", "setting": "ERK3", "value": 0, "unit": "%"},
      {"measurement": "inhibition at 10 µM", "setting": "FLT3 (N841I)", "value": 0, "unit": "%"},
      {"measurement": "inhibition at 10 µM", "setting": "FLT3-autoinhibited", "value": 4, "unit": "%"},
      {"measurement": "inhibition at 10 µM", "setting": "MAP3K4", "value": 15, "unit": "%"},
      {"measurement": "inhibition at 10 µM", "setting": "MAPKAPK2", "value": 9, "unit": "%"},
      {"measurement": "inhibition at 10 µM", "setting": "MAPKAPK5", "value": 2, "unit": "%"},
      {"measurement": "inhibition at 10 µM", "setting": "MEK1", "value": 93.1, "unit": "%"},
      {"measurement": "inhibition at 10 µM", "setting": "MEK3", "value": 94, "unit": "%"},
      {"measurement": "inhibition at 10 µM", "setting": "MLK3", "value": 31, "unit": "%"},
      {"measurement": "inhibition at 10 µM", "setting": "MRCKB", "value": 0, "unit": "%"},
      {"measurement": "inhibition at 10 µM", "setting": "PAK1", "value": 0, "unit": "%"},
      {"measurement": "inhibition at 10 µM", "setting": "PAK2", "value": 41, "unit": "%"},
      {"measurement": "inhibition at 10 µM", "setting": "PFTK1", "value": 0, "unit": "%"},
      {"measurement": "inhibition at 10 µM", "setting": "PIK3CA (C420R)", "value": 0, "unit": "%"},
      {"measurement": "inhibition at 10 µM", "setting": "PRKCE", "value": 61, "unit": "%"},
      {"measurement": "inhibition at 10 µM", "setting": "ROCK2", "value": 54, "unit": "%"},
      {"measurement": "inhibition at 10 µM", "setting": "S6K1", "value": 51, "unit": "%"},
      {"measurement": "inhibition at 10 µM", "setting": "SGK3", "value": 55, "unit": "%"},
      {"measurement": "inhibition at 10 µM", "setting": "SNARK", "value": 90, "unit": "%"},
      {"measurement": "inhibition at 10 µM", "setting": "SYK", "value": 20, "unit": "%"},
      {"measurement": "inhibition at 10 µM", "setting": "SgK110", "value": 0, "unit": "%"},
      {"measurement": "inhibition at 10 µM", "setting": "TRKC", "value": 31, "unit": "%"},
      {"measurement": "inhibition at 10 µM", "setting": "TRPM6", "value": 8, "unit": "%"},
      {"measurement": "inhibition at 10 µM", "setting": "VRK2", "value": 0, "unit": "%"},
      {"measurement": "inhibition at 10 µM", "setting": "WEE1", "value": 16, "unit": "%"}
    ]}
  ]
}
